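Test compounds were applied to cells in 96-well plates for 48 hours at 5 doses. Abbreviation: GI50, concentration required for 50% inhibition of growth.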 Activity calls are given as the source filed them. No stated cut-off is given here; in the data, active = GI50 up to about 1.1 µM and inactive = higher.
Legend:
Assay in all cases: NCI tumour cell line growth inhibition, 48 h
A498 = tested on: A498
EKVX = tested on: EKVX
OVCAR-8 = tested on: OVCAR-8
SK-MEL-2 = tested on: SK-MEL-2
Malme-3M = tested on: Malme-3M
TK-10 = tested on: TK-10
A549 = tested on: A549
786-0 = tested on: 786-0
KM12 = tested on: KM12
RPMI-8226 = tested on: RPMI-8226
SF-268 = tested on: SF-268
OVCAR-5 = tested on: OVCAR-5
COLO 205 = tested on: COLO 205
HT-29 = tested on: HT-29
DU-145 = tested on: DU-145
NCI-H226 = tested on: NCI-H226
Hs-578T = tested on: Hs-578T
HOP-62 = tested on: HOP-62
SNB-75 = tested on: SNB-75
UO-31 = tested on: UO-31

Measured: GI50

Cc1ccc(-c2cc(-c3c(C)nn(C)c(=O)c3N)n[nH]2)cc1
inactive: A498 28.5 µM | EKVX 83 µM | OVCAR-8 > 100 µM | SK-MEL-2 > 100 µM | Malme-3M > 100 µM | TK-10 > 100 µM | A549 > 100 µM | 786-0 > 100 µM | KM12 > 100 µM | RPMI-8226 99.1 µM | SF-268 > 100 µM | OVCAR-5 > 100 µM | COLO 205 > 100 µM | HT-29 > 100 µM | DU-145 > 100 µM | NCI-H226 > 100 µM | Hs-578T > 100 µM

N=C(N)NC(=N)Nc1ccccc1.Sc1nc2ccccc2s1
inactive: HOP-62 > 100 µM | A498 > 100 µM | EKVX > 100 µM | OVCAR-8 > 100 µM | SK-MEL-2 > 100 µM | Malme-3M > 100 µM | TK-10 > 100 µM | A549 > 100 µM | 786-0 > 100 µM | KM12 > 100 µM | SF-268 > 100 µM | OVCAR-5 > 100 µM | COLO 205 > 100 µM | HT-29 > 100 µM | DU-145 > 100 µM | NCI-H226 > 100 µM | Hs-578T > 100 µM | SNB-75 > 100 µM | UO-31 > 100 µM

O=C1CSC(c2cccc(Oc3ccccc3)c2)N1c1ccc(Cl)cc1 (configuration not stated)
inactive: HOP-62 57 µM | A498 17.5 µM | EKVX 20.7 µM | OVCAR-8 34.7 µM | SK-MEL-2 18.5 µM | Malme-3M 20.4 µM | TK-10 22.4 µM | A549 31.9 µM | 786-0 31.8 µM | KM12 21.3 µM | SF-268 30.3 µM | OVCAR-5 65.5 µM | COLO 205 18.5 µM | HT-29 37.8 µM | DU-145 52.2 µM | NCI-H226 32.8 µM | Hs-578T 32.9 µM | SNB-75 28 µM | UO-31 34.5 µM

CNC(=O)Nn1c(SC)nc2ccccc21
inactive: HOP-62 > 100 µM | A498 > 100 µM | EKVX > 100 µM | OVCAR-8 > 100 µM | SK-MEL-2 > 100 µM | Malme-3M > 100 µM | TK-10 > 100 µM | A549 > 100 µM | 786-0 > 100 µM | KM12 > 100 µM | RPMI-8226 > 100 µM | SF-268 > 100 µM | OVCAR-5 > 100 µM | COLO 205 > 100 µM | HT-29 > 100 µM | DU-145 > 100 µM | NCI-H226 > 100 µM | Hs-578T > 100 µM | UO-31 > 100 µM

O=C1Cc2cc3ccccc3nc2-c2ccccc2N1
inactive: HOP-62 56 µM | A498 61.5 µM | EKVX 67 µM | OVCAR-8 35.3 µM | SK-MEL-2 > 100 µM | Malme-3M > 100 µM | TK-10 27.7 µM | A549 63.7 µM | 786-0 35.1 µM | KM12 > 100 µM | SF-268 81.5 µM | OVCAR-5 > 100 µM | COLO 205 > 100 µM | HT-29 55.1 µM | DU-145 79.6 µM | NCI-H226 > 100 µM | Hs-578T 28.8 µM | SNB-75 24.7 µM | UO-31 35.4 µM

C/C=C\C(CC(=O)NCCC1CN(S(=O)(=O)C(F)(F)F)c2ccccc21)CC(=O)OC (configuration not stated)
inactive: HOP-62 35.2 µM | A498 62.8 µM | EKVX 37.4 µM | OVCAR-8 38.8 µM | SK-MEL-2 32.1 µM | Malme-3M 15.9 µM | A549 45.8 µM | 786-0 34.2 µM | KM12 26.9 µM | RPMI-8226 31.8 µM | OVCAR-5 58.6 µM | COLO 205 24.8 µM | HT-29 21.8 µM | DU-145 > 100 µM | Hs-578T 22.6 µM | UO-31 35.3 µM

CCCCC(=C=C(C)CO)C1CCCN1C(=O)OC(C)(C)C (configuration not stated)
inactive: HOP-62 20 µM | EKVX 19.7 µM | OVCAR-8 18.2 µM | SK-MEL-2 16.5 µM | Malme-3M 15 µM | TK-10 19.4 µM | A549 19 µM | 786-0 16.4 µM | KM12 18.4 µM | RPMI-8226 13.9 µM | SF-268 17.5 µM | OVCAR-5 21 µM | COLO 205 15.4 µM | HT-29 17.5 µM | DU-145 18.1 µM | NCI-H226 16 µM | Hs-578T 13.8 µM | SNB-75 22.5 µM | UO-31 22.9 µM

COCC1OC(S(=O)(=O)c2ccccc2)C(O)C(OC)C1OC (configuration not stated)
inactive: HOP-62 > 100 µM | EKVX > 100 µM | OVCAR-8 > 100 µM | SK-MEL-2 > 100 µM | Malme-3M > 100 µM | TK-10 > 100 µM | A549 > 100 µM | 786-0 > 100 µM | KM12 > 100 µM | SF-268 > 100 µM | OVCAR-5 > 100 µM | COLO 205 > 100 µM | HT-29 > 100 µM | DU-145 > 100 µM | NCI-H226 > 100 µM | Hs-578T > 100 µM | UO-31 > 100 µM

O=C1NC(N2CCOCC2)=N/C1=C\c1ccccc1
inactive: HOP-62 > 100 µM | EKVX > 100 µM | OVCAR-8 > 100 µM | SK-MEL-2 > 100 µM | Malme-3M > 100 µM | TK-10 > 100 µM | A549 > 100 µM | 786-0 > 100 µM | KM12 > 100 µM | RPMI-8226 > 100 µM | SF-268 > 100 µM | OVCAR-5 > 100 µM | COLO 205 > 100 µM | HT-29 > 100 µM | DU-145 > 100 µM | NCI-H226 > 100 µM | Hs-578T > 100 µM | SNB-75 > 100 µM | UO-31 > 100 µM

N=C(c1ccc(-c2cn3cc(C(=N)N4CCCC4)ccc3n2)cc1)N1CCCC1
inactive: HOP-62 > 100 µM | EKVX > 100 µM | OVCAR-8 > 100 µM | SK-MEL-2 > 100 µM | Malme-3M > 100 µM | TK-10 > 100 µM | A549 > 100 µM | 786-0 > 100 µM | KM12 > 100 µM | RPMI-8226 > 100 µM | SF-268 > 100 µM | OVCAR-5 > 100 µM | COLO 205 > 100 µM | HT-29 > 100 µM | DU-145 > 100 µM | NCI-H226 > 100 µM | Hs-578T > 100 µM | SNB-75 > 100 µM | UO-31 > 100 µM

Cc1ccc(-n2cc(-c3ccc(Cl)cc3)c3c(N/N=C4\SCC(=O)N4C)ncnc32)cc1
inactive: HOP-62 9.14 µM | A498 11.5 µM | EKVX 18.3 µM | OVCAR-8 5.09 µM | SK-MEL-2 2.48 µM | Malme-3M 3.31 µM | TK-10 2.64 µM | A549 4.72 µM | 786-0 3.39 µM | KM12 7.96 µM | RPMI-8226 12.9 µM | SF-268 7.05 µM | OVCAR-5 45.4 µM | COLO 205 4.09 µM | HT-29 12.3 µM | DU-145 > 100 µM | NCI-H226 7.35 µM | Hs-578T 3.59 µM | UO-31 46.3 µM

CNCCCn1c2ccccc2c2c3c(c(-c4ccsc4)cc21)C(=O)NC3=O
active: HOP-62 1.02 µM | A498 < 0.0104 µM | OVCAR-8 0.281 µM | SK-MEL-2 0.0181 µM | Malme-3M 0.163 µM | 786-0 0.259 µM | KM12 0.0174 µM | HT-29 0.824 µM | DU-145 0.179 µM | UO-31 0.286 µM
inactive: EKVX 1.85 µM | TK-10 1.35 µM | A549 1.17 µM | SF-268 1.51 µM | OVCAR-5 1.5 µM | COLO 205 1.39 µM | NCI-H226 2.37 µM | Hs-578T 1.85 µM | SNB-75 1.91 µM

Cc1c(-c2ccccc2)[nH]c2ccc(Cl)cc2c1=O
inactive: HOP-62 19.1 µM | EKVX 47.4 µM | OVCAR-8 22.3 µM | SK-MEL-2 18 µM | Malme-3M 18.3 µM | TK-10 36.6 µM | 786-0 29.8 µM | RPMI-8226 15.2 µM | SF-268 30.6 µM | OVCAR-5 61.9 µM | COLO 205 70.6 µM | HT-29 40.8 µM | DU-145 70 µM | NCI-H226 30.4 µM | Hs-578T 30.5 µM | SNB-75 26 µM
active: A549 0.0232 µM | KM12 0.263 µM | UO-31 0.252 µM

COc1ccc2c(CC(=O)O)cc(=O)oc2c1
inactive: HOP-62 > 100 µM | A498 > 100 µM | EKVX > 100 µM | OVCAR-8 > 100 µM | Malme-3M 54.8 µM | TK-10 > 100 µM | A549 > 100 µM | 786-0 > 100 µM | KM12 > 100 µM | RPMI-8226 > 100 µM | SF-268 > 100 µM | OVCAR-5 > 100 µM | COLO 205 > 100 µM | HT-29 > 100 µM | DU-145 > 100 µM | NCI-H226 > 100 µM | Hs-578T > 100 µM | UO-31 > 100 µM

O=C1OC2(c3ccccc31)c1cc(I)c(O)c(I)c1Oc1c2cc(I)c(O)c1I [ERYTHROSINE]
inactive: HOP-62 > 100 µM | EKVX > 100 µM | OVCAR-8 > 100 µM | SK-MEL-2 > 100 µM | Malme-3M 64.1 µM | TK-10 > 100 µM | A549 > 100 µM | 786-0 > 100 µM | KM12 10.4 µM | RPMI-8226 > 100 µM | SF-268 > 100 µM | OVCAR-5 > 100 µM | COLO 205 > 100 µM | HT-29 > 100 µM | DU-145 > 100 µM | NCI-H226 37.4 µM | Hs-578T 49.1 µM | SNB-75 > 100 µM | UO-31 > 100 µM
